Results on 7 compounds are retold here after US7476685B2, “Pyridine carboxamide derivatives and their use as pesticides” (Merial Limited, priority 2002, dated 2009).

The test system of test [1] is black bean aphids (Aphis fabae). The test can be described thus: Method B: root-systemic action against black bean aphids on field bean, preparation pipetted into the water. The format is in vivo. The settings on record: 10 ppm (content of active compound), 4 ml solution pipetted into bottle with Vicia faba roots, after 3 and 6 days of storage, read-out: mortality among the aphids, by root-systemic action. Here is the method: Germinated field bean seeds (Vicia faba) with seed roots were transferred into brown glass bottles filled with tap water. Four milliliters of an aqueous solution of the formulated preparation to be examined were pipetted into the brown glass bottle. The field bean was then heavily populated with about 100 black bean aphids (Aphis fabae). Plants and aphids were then stored in a climatized chamber (16 hours of light/day, 25° C., 40-60% relative atmospheric humidity). After 3 and 6 days of storage, the root-systemic effect of the preparation on the aphids was determined.

Test [2] has the same test system. In words: Method A: field bean plants and black bean aphids dipped into aqueous solution of the formulated preparation. The settings on record: 100 ppm (content of active compound), plants (Vicia faba) and aphids dipped 5 seconds, after 3 and 6 days of storage, read-out: mortality among the aphids. The format is in vivo. Here is the method:
Germinated field bean seeds (Vicia faba) with seed roots were transferred into brown glass bottles filled with tap water and then populated with about 100 black bean aphids (Aphis fabae). Plants and aphids were then dipped into an aqueous solution of the formulated preparation to be examined for 5 seconds. After they had drained, plants and animals were stored in a climatized chamber (16 hours of light/day, 25° C., 40-60% relative atmospheric humidity). After 3 and 6 days of storage, the effect of the preparation on the aphids was determined.

Some results are limits rather than exact numbers.

For the compound `CON(C)C(=O)NC(=O)c1cnccc1C(F)(F)F` [Compound A-313, 1-methyl-1-methoxy-3-(4-trifluoromethyl-3-pyridylcarbonyl)urea], in test [1], the mortality at 10 ppm was not below 80%. In the case of `CC(C)N(O)C(=O)NC(=O)c1cnccc1C(F)(F)F` [Compound A-540, 1-hydroxyl-1-isopropyl-3-(4-trifluoromethyl-3-pyridylcarbonyl)urea], in test [2], the mortality at 100 ppm is not below 50%. Also, the mortality at 10 ppm in test [1] was not below 80%.

With `O=C(NC(=O)N(CCO)Cc1ccccc1)c1cnccc1C(F)(F)F` [Compound A-862, 1-benzyl-1-(2-hydroxyethyl)-3-(4-trifluoromethyl-3-pyridylcarbonyl)urea], in test [2], the mortality at 100 ppm was not below 50%. The mortality at 10 ppm in test [1] was not below 80%. Turning to `CN(C(=S)NC(=O)c1cnccc1C(F)(F)F)c1ccccc1` [Compound B-349, 1-methyl-1-phenyl-3-(4-trifluoromethyl-3-pyridylcarbonyl)thiourea], the mortality at 100 ppm in test [2] is not below 50%. In addition, the mortality at 10 ppm in test [1] was not below 80%. `C=CCN(C(=O)c1cnccc1C(F)(F)F)C(=O)N(C)OC` [Compound E-85, 1-methyl-1-methoxy-3-allyl-3-(4-trifluoromethyl-3-pyridylcarbonyl)urea]: the mortality at 100 ppm in test [2] was not below 50%. Moreover, the mortality at 10 ppm in test [1] was not below 80%. The corresponding values for `CC(C)N1OCCN(C(=O)c2cnccc2C(F)(F)F)C1=O` [Compound U-3, 2-isopropyl-4-(4-trifluoromethyl-3-pyridylcarbonyl)-perhydro-1,2,4-oxadiazin-3-one] are not below 50% and not below 80%. The matching figures for `O=C(NC(=S)OCC(F)(F)F)c1cnccc1C(F)(F)F` [Compound X-45, 2,2,2-trifluoroethyl N-(4-trifluoromethyl-3-pyridylcarbonyl)thiocarbamate]: not below 50% and not below 80%.

For orientation: mortality means the share of the test organisms that died.
